According to US20240245658A1, “TAAR1 AND SEROTONIN MODULATORS, AND PHARMACEUTICAL COMPOSITIONS, AND METHODS OF USE THEREOF” (Sunovion Pharmaceuticals Inc., priority 2021, published 2024):
pEC50, pIC50: −log10 of the molar value. Like-named read-outs stand apart in the source and are kept apart here.

Tests used:
Type in all cases: cell-based
[1] = molecular target: T1, human TAAR1 receptors (Homo sapiens, UniProt Q96RJ0); assay: TAAR1 Agonism Assay: cAMP HTRF assay for Gs coupled receptor TAAR1 (Euroscreen FAST-0987C); details: CHO-K1 cells expressing human TAAR1, cAMP HTRF
T1 construct: host or cells: CHO-K1
T1 sequence (Q96RJ0 1-339): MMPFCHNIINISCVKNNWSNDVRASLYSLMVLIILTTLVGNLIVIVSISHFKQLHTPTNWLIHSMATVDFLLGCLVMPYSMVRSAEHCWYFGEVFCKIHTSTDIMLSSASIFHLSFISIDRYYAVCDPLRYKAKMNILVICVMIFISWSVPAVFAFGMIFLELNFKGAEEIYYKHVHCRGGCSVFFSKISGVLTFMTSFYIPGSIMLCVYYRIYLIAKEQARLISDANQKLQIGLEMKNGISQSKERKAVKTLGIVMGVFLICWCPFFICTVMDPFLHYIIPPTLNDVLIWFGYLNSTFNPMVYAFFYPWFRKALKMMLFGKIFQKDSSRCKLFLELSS
Procedure: Dose response curves were performed in parallel with the reference compound, tyramine.
For the TAAR1 agonist test (performed in a 384 well plate): 5 μl of cells (about 3,000 cells) were mixed with 5 μl of the test compound diluted in assay buffer and then incubated for about 30 minutes at about room temperature. After addition of the lysis buffer containing cAMP-d2 and anti-cAMP cryptate detection reagents, plates were incubated for about a 1-hour incubation at about room temperature, and fluorescence ratios were measured according to the manufacturer specifications, with the HTRF (Homogeneous Time Resolved Fluorescence) kit (cAMP Gs dynamic kit, Cisbio Bioassays, 62AM4PEJ).
(§1) Compounds were tested at the following nanomolar concentrations, in duplicate: 0.3 nM, 1 nM, 3 nM, 10 nM, 30 nM, 100 nM, 300 nM, 1,000 nM, 3,000 nM, and 10,000 nM.

[2] = molecular target: T2, human 5-HT2A receptor (Homo sapiens, UniProt P28223); assay: 5HT2A Antagonism Assay (Euroscreen FAST-05051), IP-One HTRF
T2 construct: host or cells: CHO-K1
Procedure: 5HT2A Antagonism Assay Protocol (Euroscreen FAST-05051)
CHO-K1 cells expressing the human 5-HT2A receptor grown to mid-log phase in culture media without antibiotics, were detached with PBS-EDTA, centrifuged, and resuspended in the IP-One Gq kit (Cisbio Bioassays, 62IPAPEC) stimulation buffer.
For antagonist testing in a 384 well plate: 5 μl of cells (20,000 cells) were mixed with 5 μl of a mix of test compound and reference agonist (for a final assay concentration corresponding to its EC80) diluted in stimulation buffer. The plate was incubated for 60 minutes at 37° C. in a humidified atmosphere of 95% air with 5% CO2, then 5 μL of IP1-d2 and anti-IP1 cryptate detection reagents were added to each well, the plates were incubated for about 1 hour at about room temperature. Fluorescence ratios are measured according to the manufacturer's specification (IP-One Gq kit (Cisbio Bioassays, 62IPAPEC).
Dose response curves were performed in parallel with reference compounds (e.g., α-methyl-5-HT. Compounds were tested at the following nanomolar concentrations, in duplicate: 0.3 nM, 1 nM, 3 nM, 10 nM, 30 nM, 100 nM, 300 nM, 1,000 nM, 3,000 nM, and 10,000 nM

[3] = molecular target: T3, human 5-HT7 receptor (Homo sapiens, UniProt P34969); assay: 5HT7 Antagonism Assay (Euroscreen FAST-0499C), cAMP HTRF; details: CHO-K1 cells expressing human 5-HT7, reference agonist at EC80, cAMP HTRF
T3 construct: host or cells: CHO-K1
Procedure: 5HT7 Antagonism Assay Protocol (Euroscreen FAST-0499C)
CHO-K1 cells expressing the human 5-HT7 receptor, grown prior to the test in media without antibiotic, were detached by gentle flushing with PBS-EDTA (5 mM EDTA), recovered by centrifugation and resuspended in assay buffer (Krebs-Ringer HEPES buffer: 5 mM KCl, 1.25 mM MgSO4, 124 mM NaCl, 25 mM HEPES, 13.3 mM Glucose, 1.25 mM KH2PO4, 1.45 mM CaCl2), 0.5 g/l BSA, supplemented with 1 mM IBMX).
Dose response curves were performed in parallel with reference compounds (e.g., 5-carboxamidotryptamine (5-CT)).
For antagonist testing in a 384 well plate: 5 μl of cells (3000 cells) were mixed with 5 μl of a mix of test compound and reference agonist (for a final assay concentration corresponding to its EC80) diluted in assay buffer. The plates were then incubated for about 30 minutes at about room temperature. After addition of the lysis buffer containing cAMP-d2 and anti-cAMP cryptate detection reagents, plates were incubated for about 1 hour at about room temperature, and fluorescence ratios were measured according to the manufacturer's specifications (HTRF kit: cAMP Gs dynamic kit, Cisbio Bioassays, 62AM4PEJ).
as §1

[4] = read-out: 5-HT2A (IC50), CHO-K1 cells expressing human 5-HT2A, reference agonist at EC80, IP-One
[5] = 5-HT2A (IC50), CHO-K1 cells expressing human 5-HT2A, reference agonist at EC80, IP-One
[6] = CHO-K1 cells expressing human 5-HT2A, reference agonist at EC80, IP-One, read-out: 5-HT2A (IC50)

T3 sequence (P34969 whole entry): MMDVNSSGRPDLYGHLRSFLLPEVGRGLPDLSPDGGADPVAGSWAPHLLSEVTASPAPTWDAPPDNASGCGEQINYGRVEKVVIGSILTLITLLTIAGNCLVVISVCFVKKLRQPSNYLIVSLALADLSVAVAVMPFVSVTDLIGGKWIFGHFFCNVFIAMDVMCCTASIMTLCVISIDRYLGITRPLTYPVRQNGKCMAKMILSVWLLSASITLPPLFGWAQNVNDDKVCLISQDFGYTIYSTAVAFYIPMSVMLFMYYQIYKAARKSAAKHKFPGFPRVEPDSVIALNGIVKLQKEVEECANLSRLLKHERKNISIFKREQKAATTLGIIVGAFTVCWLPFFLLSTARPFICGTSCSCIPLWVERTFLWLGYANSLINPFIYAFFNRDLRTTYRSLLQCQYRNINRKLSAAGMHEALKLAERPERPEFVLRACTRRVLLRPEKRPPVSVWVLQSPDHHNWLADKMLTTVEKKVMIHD
T2 sequence (P28223 whole entry): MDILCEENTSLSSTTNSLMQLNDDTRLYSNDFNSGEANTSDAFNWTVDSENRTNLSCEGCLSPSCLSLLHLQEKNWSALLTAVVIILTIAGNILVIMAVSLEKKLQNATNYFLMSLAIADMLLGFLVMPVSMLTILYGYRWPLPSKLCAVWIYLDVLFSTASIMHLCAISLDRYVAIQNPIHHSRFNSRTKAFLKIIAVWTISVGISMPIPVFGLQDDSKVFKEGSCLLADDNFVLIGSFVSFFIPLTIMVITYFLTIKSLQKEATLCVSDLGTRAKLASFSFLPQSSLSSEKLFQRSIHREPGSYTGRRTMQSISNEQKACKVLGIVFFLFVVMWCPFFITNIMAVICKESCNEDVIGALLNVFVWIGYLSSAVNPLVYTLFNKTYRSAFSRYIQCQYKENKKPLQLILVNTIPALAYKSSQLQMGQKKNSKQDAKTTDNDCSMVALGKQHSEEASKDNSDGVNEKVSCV

Compound	pEC50 [1]	pIC50 [2, 4]	pIC50 [3]	pIC50 [2, 5]	pIC50 [2, 6]
NCC1Cc2ncccc2Oc2ccccc21 (single isomer, unassigned) [Compound 30, (S*)-(10,11-dihydrobenzo[6,7]oxepino[3,2-b]pyridin-10-yl)methanamine]	> 6.00	5.00 to 6.00	≤ 5.00		
CNCC1Cc2ncccc2Oc2ccccc21 (single isomer, unassigned) [Compound 31, (R*)-1-(10,11-dihydrobenzo[6,7]oxepino[3,2-b]pyridin-10-yl)-N-methylmethanamine]	< 5.00		≤ 5.00	> 6.00	
CNCC1Cc2ncccc2Oc2ccccc21 (single isomer, unassigned) [Compound 32, (S*)-1-(10,11-dihydrobenzo[6,7]oxepino[3,2-b]pyridin-10-yl)-N-methylmethanamine]	> 6.00	> 6.00	≤ 5.00		
NCC1Cc2ncccc2Oc2cc(F)ccc21 (single isomer, unassigned) [Compound 36, (S*)-(7-fluoro-10,11-dihydrobenzo[6,7]oxepino[3,2-b]pyridin-10-yl)methanamine]	> 6.00		≤ 5.00	> 6.00	
CNC[C@H]1Cc2ncc(F)cc2Oc2ccccc21 (single isomer, unassigned) [Compound 38, (S*)-1-(3-fluoro-10,11-dihydrobenzo[6,7]oxepino[3,2-b]pyridin-10-yl)-N-methylmethanamine]	5.00 to 6.00		5.00 to 6.00		> 6.00
NCC1Cc2ncc(F)cc2Oc2ccccc21 (single isomer, unassigned) [Compound 39, (R*)-(3-fluoro-10,11-dihydrobenzo[6,7]oxepino[3,2-b]pyridin-10-yl)methanamine]	5.00 to 6.00		≤ 5.00	> 6.00	
NCC1Cc2ncc(F)cc2Oc2ccccc21 (single isomer, unassigned) [Compound 40, (S*)-(3-fluoro-10,11-dihydrobenzo[6,7]oxepino[3,2-b]pyridin-10-yl)methanamine]	> 6.00	> 6.00	≤ 5.00		
NCC1Oc2ccc(F)cc2Oc2ccccc21 (single isomer, unassigned) [Compound 41, (R*)-(7-fluoro-11H-dibenzo[b,e][1,4]dioxepin-11-yl)methanamine]	> 6.00		5.00 to 6.00	> 6.00	
NCC1Oc2ccc(F)cc2Oc2ccccc21 (single isomer, unassigned) [Compound 42, (S*)-(7-fluoro-11H-dibenzo[b,e][1,4]dioxepin-11-yl)methanamine]	> 6.00	> 6.00	≤ 5.00		
CNCC1Oc2ccc(F)cc2Oc2ccccc21 (single isomer, unassigned) [Compound 43, (R*)-1-(7-fluoro-11H-dibenzo[b,e][1,4]dioxepin-11-yl)-N-methylmethanamine]	> 6.00		> 6.00	> 6.00	
CNCC1Oc2ccc(F)cc2Oc2ccccc21 (single isomer, unassigned) [Compound 44, (S*)-1-(7-fluoro-11H-dibenzo[b,e][1,4]dioxepin-11-yl)-N-methylmethanamine]	> 6.00	> 6.00	> 6.00		
CNCC1Oc2ccccc2Oc2ncccc21 (single isomer, unassigned) [Compound 45, (R*)-1-(5H-benzo[2,3][1,4]dioxepino[5,6-b]pyridin-5-yl)-N-methylmethanamine]	< 5.00		≤ 5.00		5.00 to 6.00
CNCC1Oc2ccccc2Oc2ncccc21 (single isomer, unassigned) [Compound 46, (S*)-1-(5H-benzo[2,3][1,4]dioxepino[5,6-b]pyridin-5-yl)-N-methylmethanamine]	5.00 to 6.00		≤ 5.00		5.00 to 6.00
NCC1Oc2ccccc2Oc2ncccc21 (single isomer, unassigned) [Compound 47, (R*)-(5H-benzo[2,3][1,4]dioxepino[5,6-b]pyridin-5-yl)methanamine]	5.00 to 6.00		≤ 5.00		< 5.00
NCC1Oc2ccccc2Oc2ncccc21 (single isomer, unassigned) [Compound 48, (S*)-(5H-benzo[2,3][1,4]dioxepino[5,6-b]pyridin-5-yl)methanamine]	5.00 to 6.00		≤ 5.00		< 5.00
NCC1Oc2ccccc2Oc2cnccc21 (single isomer, unassigned) [Compound 49, (R*)-(5H-benzo[2,3][1,4]dioxepino[5,6-c]pyridin-5-yl)methanamine]	5.00 to 6.00		≤ 5.00	< 5.00	
NCC1Oc2ccccc2Oc2cnccc21 (single isomer, unassigned) [Compound 50, (S*)-(5H-benzo[2,3][1,4]dioxepino[5,6-c]pyridin-5-yl)methanamine]	> 6.00	< 5.00	≤ 5.00		
CNCC1Oc2ccccc2Oc2cnccc21 (single isomer, unassigned) [Compound 51, (R*)-1-(5H-benzo[2,3][1,4]dioxepino[5,6-c]pyridin-5-yl)-N-methylmethanamine]	5.00 to 6.00		≤ 5.00		5.00 to 6.00
CNCC1Oc2ccccc2Oc2cnccc21 (single isomer, unassigned) [Compound 52, (S*)-1-(5H-benzo[2,3][1,4]dioxepino[5,6-c]pyridin-5-yl)-N-methylmethanamine]	< 5.00		≤ 5.00		5.00 to 6.00
NCC1Oc2ccccc2Oc2ccncc21 (single isomer, unassigned) [Compound 53, (R*)-(11H-benzo[2,3][1,4]dioxepino[6,5-c]pyridin-11-yl)methanamine]	5.00 to 6.00		≤ 5.00		< 5.00
NCC1Oc2ccccc2Oc2ccncc21 (single isomer, unassigned) [Compound 54, (S*)-(11H-benzo[2,3][1,4]dioxepino[6,5-c]pyridin-11-yl)methanamine]	5.00 to 6.00		≤ 5.00		< 5.00
CNC[C@@H]1Oc2ccccc2Oc2ccncc21 (single isomer, unassigned) [Compound 55, (R*)-1-(11H-benzo[2,3][1,4]dioxepino[6,5-c]pyridin-11-yl)-N-methylmethanamine]	< 5.00		≤ 5.00		< 5.00
CNC[C@H]1Oc2ccccc2Oc2ccncc21 (single isomer, unassigned) [Compound 56, (S*)-1-(11H-benzo[2,3][1,4]dioxepino[6,5-c]pyridin-11-yl)-N-methylmethanamine]	< 5.00		≤ 5.00		< 5.00
CNCC1Oc2ccccc2Oc2cccnc21 (single isomer, unassigned) [Compound 57, (S*)-1-(11H-benzo[2,3][1,4]dioxepino[6,5-b]pyridin-11-yl)-N-methylmethanamine]	> 6.00		≤ 5.00	5.00 to 6.00	
